The record followed here is the METLIN SMRT retention time set (Domingo-Almenara et al. 2019).

SMILES strings stand for the structures.

This data set can be described thus: gradient 5% acetonitrile 3 min, to 50% in 2 min, to 85% in 15 min, held 3 min, 100 µL/min. The note with it: column: Zorbax Extend-C18 2.1 x 50 mm; eluents: water / acetonitrile, 0.1% formic acid. An outline of the steps:
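Over 3 months, pure standards in mixtures of ~100 molecules were run by HPLC coupled to a quadrupole time-of-flight mass spectrometer in positive and negative ionization mode. The column was a Zorbax Extend-C18 (2.1 × 50 mm, 1.8 μm) at 100 μL/min, eluted with water and acetonitrile each holding 0.1% formic acid, with 40 μL dead and 900 μL dwell volumes. Retention time was determined from adduct peaks chosen by software and checked manually.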
`CCCC(=O)Nc1ccc2nc(N3CCN(CC(=O)NCCOC)CC3)cc(C(=O)O)c2c1` yielded an RP-LC retention time of 839 s.
Then `COc1ccc(NC(=O)NC2CCN(c3cc(N4CCCC4)cnn3)C2)cc1Cl` (stereo not given), with 584 s; and `CCC(C)NC(=O)N1CCN(c2nc3ccccc3n(Cc3ccccc3)c2=O)CC1` (stereo not given), with 981 s; and `COc1ccc(OC)c(CNC(=O)C2CCN(c3ccc4nncn4n3)CC2)c1`, with 680 s.
`O=C(NCCc1nc2cccnc2n1-c1ccccc1)c1ccsc1` registered an RP-LC retention time of 674 s.
In turn, `CCOc1ccc(-c2noc(Cc3nnc(-c4ccccc4)o3)n2)cc1` showed an RP-LC retention time of 1040 s.
`CC(=O)c1ccc(N2CCN(C(=O)Cn3cccc3-c3nnc(C4CCC4)o3)CC2)cc1` yielded an RP-LC retention time of 824 s.
In the case of `CCc1ccc(OCc2nc(CCN(C)C(=O)Nc3cc(OC)ccc3OC)no2)cc1` it was 1060 s.
In the case of `COCCNC(=O)Cc1ccc(NS(=O)(=O)c2ccccc2Cl)cc1`, the RP-LC retention time was determined as 676 s.
Then `CCc1ccc(-n2nc(CO)c(C(=O)NC3CC3)n2)cc1`, with 897 s; and `Oc1ccc2c3c1O[C@H]1c4oc5ccccc5c4C[C@@]4(O)[C@@H](C2)N(CC2CC2)CC[C@]314`, with 673 s.
In the case of `CNC(=O)[C@@H]1CN(C(=O)c2cscn2)C[C@H]1c1nc(COC)no1` it was 582 s; in that of `CC12COC3(C(=O)Nc4ccc(F)cc4)CC1CCC32C` (stereo not given), 1030 s; in that of `C/C=C/c1ccc(OCC(O)CN2CCN(C)CC2)c(OC)c1` (stereo not given), 560 s.
Then `Cc1ccc(S(=O)(=O)N(C)C)cc1-c1nnc(-c2ccccc2Cl)o1`, with 1010 s.
Take `CCN1C=C(C(=O)OCc2ccc(C)cc2)C(C)=NS1(=O)=O`: the RP-LC retention time is 1030 s.
Then `O=C(c1nnc(-c2ccc(S(=O)(=O)N3CCOCC3)cc2)o1)N1CCN(c2ccccc2)CC1`, with 905 s.
Then `O=S(=O)(c1cc(-c2nnc(C3CC3)o2)co1)N1CCN(c2ccccn2)CC1`, with 640 s; and `Cc1ccc(NC(=O)NC(C)C(=O)N2CCc3ccccc32)c(Cl)c1` (stereo not given), with 967 s; and `Cc1ncsc1C1N(C2CCN(C(=O)C3CC3)CC2)C(=O)C12CCCC2` (stereo not given), with 696 s.
In the case of `Cc1cc(C(=O)NC(C)C)nn1C` it was 628 s.
The compound `CCn1ccc(C(=O)N2CCCn3nc(-c4cccs4)cc3C2)n1` came in with an RP-LC retention time of 748 s.
Then `Cc1ccn2cc(C(=O)NCc3ccc(Cl)cc3)nc2c1`, with 704 s.
In the case of `Cc1ccccc1Oc1nccn2c(=O)n(CC(=O)Nc3ccccc3)nc12` it was 856 s; in that of `O=C(CN1C(=O)C(C(=O)N2CCCC2)Sc2ccccc21)NCc1ccc(Br)cc1` (stereo not given), 971 s; in that of `CCCCNC(=O)c1cnn(-c2cc(-c3nc(C)no3)ccn2)c1C`, 853 s.
In the case of `Cc1nc(C)c(CCNS(=O)(=O)c2cc(C)c(C)cc2C)s1` it was 695 s; in that of `Cc1nn2c(ncc3c(=O)n(-c4nccs4)ccc32)c1-c1ccccc1`, 1170 s; in that of `Cc1noc(C)c1CN1CCC(NC(=O)c2ccc3c(c2)OCO3)CC1`, 590 s.
In the case of `O=C(Nc1cccc(N2CCCCC2=O)c1)c1ccc(F)c(F)c1`, the RP-LC retention time was determined as 705 s.
Then `Cc1cccc(-c2nc(-c3ccc(-n4ccnc4)nc3)no2)c1`, with 814 s; and `O=C(NCc1ccccc1F)C1CCCN(c2nnc3ccc(Cl)cn23)C1` (stereo not given), with 756 s; and `Cc1ccc(N2CCC(NC(=O)c3ccc(Cl)s3)C2=O)cc1` (stereo not given), with 888 s.
In the case of `CN1CCN(C(=O)c2csc(N3CCN(c4ccc(F)cc4)CC3)n2)CC1` it was 643 s.
Then `COc1cccc(C2=NC3(CCN(C(C)C)CC3)NC(c3cc(Br)ccc3O)C2)c1` (stereo not given), with 647 s; and `CC(=O)OC1CCN(C(=O)NC(C)(C)C)CC1`, with 696 s.
The compound `O=C(Cn1c(=O)oc2ccccc21)N1CCN(C(=O)C2CC2c2cccs2)CC1` (stereo not given) gave an RP-LC retention time of 738 s.
In the case of `O=C(CCn1cnc2cc(S(=O)(=O)N3CCCC3)ccc21)N1CCN(c2ccccn2)CC1` it was 576 s.
In the case of `CCc1cccc(NS(=O)(=O)c2cc3n(c2)CCN(CC(C)C)C3=O)c1` it was 852 s; in that of `O=C1Nc2ccccc2SC1C(=O)N1CCC(C(=O)N2CCN(c3ccccn3)CC2)CC1` (stereo not given), 596 s; in that of `Cc1c(-c2noc(-c3ccc4c(c3)OCO4)n2)nnn1Cc1ccc(F)cc1`, 999 s.
Then `Cc1cc(C)n(CCNC(=O)c2nc3ccccc3s2)n1`, with 708 s; and `CC1Oc2ccc(S(=O)(=O)N3CCC(C(=O)NCCc4ccccc4)CC3)cc2NC1=O` (stereo not given), with 792 s; and `COc1ccc2c(c1)C1CC(C)(O2)N(C)C(=O)C1S(=O)(=O)c1ccccc1` (stereo not given), with 916 s.
In turn, `c1ccc(-c2noc(-c3ccccc3OC3CCN(Cc4nccs4)C3)n2)cc1` (stereo not given) had an RP-LC retention time of 750 s.
Turning to `Cc1nnc(NC(=O)CSc2nnc(-c3cccs3)o2)s1`, the RP-LC retention time was 654 s.
In the case of `Cc1ccccc1-n1ccn(Cc2nc(-c3ccc(F)cc3)no2)c(=O)c1=O` it was 844 s; in that of `Cc1nn(C2CCS(=O)(=O)C2)c(C)c1N1CCN(C(=O)C(C)Oc2ccccc2)CC1` (stereo not given), 731 s; in that of `CCOC(=O)c1noc2ncnc(NCCCN3CCN(c4cccc(C)c4)C(C)C3)c12` (stereo not given), 619 s.
In the case of `COc1ccc(C2(C(=O)N3CCCCCCN(C)C(=O)[C@@H]4CCC[C@@H]43)CC2)cc1` it was 922 s; in that of `CCC(C)NC(=O)C1CCN(S(=O)(=O)c2ccc3c(c2)CCCC(=O)N3)CC1` (stereo not given), 682 s; in that of `CCC1CCCCN1C(=O)c1cnc2nc(C)ccc2c1Nc1ccc(OC)c(OC)c1` (stereo not given), 648 s.
In the case of `CC(=O)c1ccc(Nc2c(C(=O)OC(C)C)cnc3nc(C)ccc23)cc1`, the RP-LC retention time was found to be 616 s.
In the case of `O=c1c2cnn(Cc3ccccc3F)c2ncn1Cc1cccc(C(F)(F)F)c1` it was 928 s.
`COc1ccc(-c2cn3c(CC(=O)NC4CCCCC4)csc3n2)cc1OC` came in with an RP-LC retention time of 702 s.
In turn, `COc1ccc(S(=O)(=O)N2CCC(C(=O)NCc3csc(-c4ccccc4)n3)CC2)cc1` came in with an RP-LC retention time of 885 s.
In the case of `COc1cccc(S(=O)(=O)N2CCC(OCCOCc3ccccc3)CC2)c1` it was 678 s; in that of `O=C1CCCc2cc(S(=O)(=O)N3CCC(C(=O)NCc4ccco4)CC3)ccc2N1`, 678 s.
In the case of `Cc1nc(-c2ccc(Cl)cc2)oc1COC(C)(C)C(=O)O` it was 909 s.
Then `Cc1ccc(CNC(=O)c2ccc(-c3cncnc3)nc2)o1`, with 678 s; and `CCC1CN2C=NC(N3CCN(C(=O)NCc4cccc(OC)c4)CC3)=CC2=N1` (stereo not given), with 614 s; and `CCN(CC)S(=O)(=O)c1ccc(NC(=O)c2oc3c(c2C)C(=O)CC(C)(C)C3)cc1`, with 982 s.
For `CC(=O)N1CCC([C@@H]2CN(C(=O)c3ccc(Br)o3)C[C@H]2CO)CC1`, the RP-LC retention time came out at 622 s.
In the case of `CCOc1ccc(C2Cn3nnc(-c4nc(-c5ccsc5)no4)c3CO2)cc1` (stereo not given) it was 1150 s.
In the case of `O=C(CSc1ccc(N2CCCC(C(=O)NC3CC3)C2)nn1)Nc1ccc(Br)cc1` (stereo not given) it was 691 s.
For `COc1ccc(OC)c(NC(=O)Cn2c(=O)nc(N3CCC(C)CC3)c3ccccc32)c1`, the RP-LC retention time stood at 859 s.
Then `Cc1cccc(NC(=O)Cn2nc3c(Oc4cc(C)cc(C)c4)nccn3c2=O)c1`, with 934 s.
In the case of `CCc1c(C2CCN(C(=O)c3cccc(C#N)c3)CC2)noc1N` it was 690 s.
As for `Cc1ccc(NC(=O)N2CCC(n3cnnc3C3CC3)C2)cc1C` (stereo not given), the RP-LC retention time is 665 s.
For `CCc1cc(C(c2cccc(F)c2)N2CCN(C)CC2)c(NC(=O)c2ccccc2)s1` (stereo not given), the RP-LC retention time was 622 s.
Then `COC(=O)c1cc2c(=O)n(-c3ccc(Cl)cc3Cl)ccc2nc1C`, with 928 s; and `O=C(NCCn1nc(-c2ccco2)ccc1=O)C1CN(c2nc3c(F)cccc3s2)C1`, with 680 s; and `Clc1ccc(-c2nc(NCc3cccs3)c3ccccc3n2)cc1`, with 842 s.
`COc1ccc(Cl)cc1NS(=O)(=O)c1c(C)sc(C)c1-c1cc(C(F)(F)F)on1`: the RP-LC retention time was determined as 1220 s.
Then `CCCNC(=O)N1CCCC(c2nn(C)c(=O)n2CC)C1` (stereo not given), with 602 s; and `CO[C@H]1C(=O)N(C(C)C)[C@H]1C1CCN(S(=O)(=O)Cc2ccccc2F)CC1`, with 831 s; and `O=C(NCc1ccc(Cl)cc1)C1CCCN(S(=O)(=O)c2c[nH]c(C(=O)N3CCCC3)c2)C1` (stereo not given), with 800 s.
In the case of `Cn1c(=O)n(C)c2cc(S(=O)(=O)C3CCCCC3)c(NC(=O)c3ccccc3F)cc21` it was 940 s.
Then `CCCn1cnc2cc(CNC(=O)Cc3cccc(Cl)c3)ccc21`, with 670 s; and `CN(C)CCNCc1ccc(-c2cc(Cl)cc(Cl)c2)o1`, with 597 s.
